Consider one molecule from publication PMC10804683, “Identification of the pyridoxal 5′‐phosphate allosteric site in human pyridox(am)ine 5′‐phosphate oxidase” (Protein Science : A Publication of the Protein Society, 2024).

Positions count from the first letter of the chain named. “Also recorded” adds a separate entry of the source.

The target of test [1] is T1, human PNPO 1-31del variant (Homo sapiens, UniProt Q9NVS9).
T1 construct: a main form corresponding to the entire protein; made in house; host or cells: E. coli BL21(DE3)
T1 sequence (Q9NVS9 32-261): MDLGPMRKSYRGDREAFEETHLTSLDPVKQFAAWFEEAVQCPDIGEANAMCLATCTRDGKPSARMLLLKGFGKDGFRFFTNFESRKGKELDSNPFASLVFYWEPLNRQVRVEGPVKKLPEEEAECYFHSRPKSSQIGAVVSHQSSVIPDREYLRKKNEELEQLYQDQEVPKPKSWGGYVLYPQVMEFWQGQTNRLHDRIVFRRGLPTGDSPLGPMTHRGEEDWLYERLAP
The test is described as follows: PLP binding by DSF, 1-31del. The note with it: 50 mM Na-HEPES pH 7.6, 2 μM enzyme. How it is done: FIGURE 2 DSF measurements with F48A (a), F48A/E50L/R258L (b), F48A/E50L/H248N/R258L (c), and 1‐31del PNPO variants in the presence of different PLP concentrations. Upper panels: Fluorescence change is expressed as fractional variation as a function of temperature. The experiment was carried out using 2 μM enzyme and different PLP concentrations (0, 0.78, 1.56, 3.13, 6.25, 12.5, 25, and 50 μM). Thermal denaturation data are fitted to the Boltzmann equation to obtain melting temperatures. Each curve is the average of three independent experiments with standard error bars. Lower panels: Saturation curves obtained by plotting the melting temperatures as a function of the PLP concentration. […] (μM)' of each lower plot.

The target of the next test is T2, apo-PNPO wt (Homo sapiens, UniProt Q9NVS9).
T2 construct: a main form corresponding to the entire protein; made in house; host or cells: E. coli BL21(DE3)
T2 sequence (Q9NVS9 1-261): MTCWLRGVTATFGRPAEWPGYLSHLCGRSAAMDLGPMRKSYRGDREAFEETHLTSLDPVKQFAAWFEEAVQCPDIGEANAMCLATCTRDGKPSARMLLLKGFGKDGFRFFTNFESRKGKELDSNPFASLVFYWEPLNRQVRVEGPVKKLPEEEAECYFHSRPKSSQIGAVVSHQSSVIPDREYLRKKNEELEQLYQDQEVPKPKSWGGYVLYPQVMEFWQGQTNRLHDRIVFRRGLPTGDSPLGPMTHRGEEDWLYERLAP
The test is described as follows: PLP binding by intrinsic fluorescence, apo wild type. The settings on record: intrinsic fluorescence 335–345 nm, excitation 280 nm, 100 nM enzyme, read-out: Apo-enzyme PLP binding KD^FLUO. The text has this: (§1) PLP binding to PNPO can be detected and quantitatively measured using differential scanning fluorimetry (DSF) and also by measuring FMN fluorescence changes. We had previously attributed DSF changes to PLP binding at the active site, while FMN fluorescence changes were attributed to PLP binding at the allosteric site (Barile et al., [2019], [2020]). Previous experiments carried out with the PNPO R161C variant, affecting a residue that is essential for substrate binding and catalysis (and therefore also for PLP binding at the active site), confirms that DSF measurements only report PLP binding at the active site (Barile et al., [2021]; Table 1). […] We expected to observe no FMN fluorescence changes upon titration of the variants with PLP. However, this was not the case, and the dissociation constant values obtained by observing the FMN fluorescence emission were only up to threefold larger in the variants with respect to wild type PNPO (Figure 3). […] To check the second possibility, we measured intrinsic fluorescence changes of wild type and variant apo‐forms (i.e., without FMN) upon PLP titration. […]
(§2) Analyses of PLP binding, based on FMN fluorescence increase observed upon binding of PLP to PNPO, were performed as described in Barile et al. ([2020]). […] Emission spectra were recorded from […], with excitation and emission slits set at 3 and 5 nm, respectively. […]

Test [2] addresses T3, apo-PNPO F48A/E50L/H248N/R258L (Homo sapiens, UniProt Q9NVS9, E50L/F48A/H248N/R258L).
T3 construct: a main form corresponding to the entire protein; made in house; host or cells: E. coli BL21(DE3)
T3 sequence (Q9NVS9 1-261 F48A/E50L/H248N/R258L): T2 sequence (Q9NVS9 1-261) with F48A, E50L, H248N, R258L
The test is described as follows: PLP binding by intrinsic fluorescence, apo quadruple variant. The settings on record: excitation 280 nm, 100 nM enzyme.
From the text: as §1, §2

Another test has as its target T4, human PNPO wild type (Homo sapiens, UniProt Q9NVS9).
T4 sequence (Q9NVS9 1-261): T2 sequence (Q9NVS9 1-261)
The arrangement: a main form corresponding to the entire protein; made in house; host or cells: E. coli BL21(DE3); method as in Barile et al., [2020]. The settings on record: substrate-enzyme-PLP ternary complex, ref Barile et al., [2020]; cited from earlier work.

For `Cc1ncc(COP(=O)(O)O)c(C=O)c1O` [PLP, pyridoxal 5′‐phosphate], the Kd (commonly the equilibrium constant for the complex coming apart) in test [1] came out at 3 ± 0.3 µM; on apo-PNPO wt, 600 ± 50 nM. The “Apo-enzyme PLP binding KD^FLUO” value in test [2] is “no change in fluorescence was observed; also recorded: No binding”. The “coefficient by which kCAT is reduced with PLP bound at the allosteric site” value on human PNPO wild type is “around 0.15”.
